Measurements as given in US20260184675A1, “CHIRAL ISOMERIC SULFITE COMPOUND AND APPLICATION THEREOF” (Chengdu Hanova BioSciences Co., Ltd, priority 2024, published 2026).

Columns and labels:
Assay type in all cases: in vivo
[1] = tested on: eggs of Harmonia axyridis; test: Effect on hatching of eggs of Harmonia axyridis, egg card immersion; conditions: 100 ppm; for Number of hatched larvae 4 days after insecticide delivery, Replicate 1 / Number of hatched larvae 4 days after insecticide delivery, Replicate 2 / Number of hatched larvae 4 days after insecticide delivery, Replicate 3: Harmonia axyridis egg cards, immersed 30 seconds; for Hatching rate (%), Replicate 1 / Hatching rate (%), Replicate 2 / Hatching rate (%), Replicate 3: Harmonia axyridis eggs, 4 days after delivery
Method in brief: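 Egg cards (~20 eggs each) dipped 30 s in 100 ppm insecticide, air dried and kept moist at 27° C; 5 cards per treatment, 3 replicates. Hatching assessed 4 days after treatment against pre-treatment egg counts, and control effect calculated by formula.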

[2] = tested on: eggs of Tetranychus urticae; test: Effect on hatching of eggs of Tetranychus urticae, leaf disc method; conditions: 5 ppm; for Hatching rate (%): 5 days after insecticide delivery
Method in brief: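 Twenty adult female Tetranychus urticae mites were placed on 2.0 cm Vicia faba leaf discs over wetted filter paper in lidded dishes kept moist, and removed within 36 hours. Eggs on each disc were counted under a microscope. The egg-bearing discs were dipped for 10 seconds in a compound solution at 5 ppm or in clear water, then kept moist, and hatching was checked five days after treatment.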

eggs of Aleyrodidae = test: Effect on hatching of eggs of Aleyrodidae, leaf disc method; conditions: 10 ppm; for Hatching rate (%), Replicate 1 / Hatching rate (%), Replicate 2 / Hatching rate (%), Replicate 3 / Number of hatched larvae 5 days after insecticide delivery, Replicate 1 / Number of hatched larvae 5 days after insecticide delivery, Replicate 2 / Number of hatched larvae 5 days after insecticide delivery, Replicate 3: Aleyrodidae eggs; for Hatching rate (%), Replicate 1 / Hatching rate (%), Replicate 2 / Hatching rate (%), Replicate 3: 5 days after delivery; for Number of hatched larvae 5 days after insecticide delivery, Replicate 1 / Number of hatched larvae 5 days after insecticide delivery, Replicate 2 / Number of hatched larvae 5 days after insecticide delivery, Replicate 3: leaf disc
Method in brief: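 Inhibition of Aleyrodidae egg hatching was tested with a leaf disc method at 10 ppm. Egg numbers on each disc were counted under a microscope before treatment. Discs bearing eggs were soaked for 10 seconds in clear water or test solution, removed, and kept under moist conditions. Hatching was checked five days after insecticide delivery and hatched larvae were counted.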

eggs of Thrips = test: Effect on hatching of eggs of Thrips, leaf disc method; conditions: 100 ppm; for Hatching rate (%): 5 days after insecticide delivery
Method in brief: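 Thrip egg hatching was tested by the leaf disc method on Vicia faba discs 2.0 cm across, placed over wetted filter paper. Egg numbers on each disc were counted under a microscope before treatment. Discs were then dipped for 10 seconds in clean water or a compound solution at 100 ppm. They were kept moist under normal conditions, and hatching was surveyed five days after insecticide delivery.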

| SMILES | Number of hatched larvae 4 days after insecticide delivery, Replicate 1 [1] | Number of hatched larvae 4 days after insecticide delivery, Replicate 2 [1] | Number of hatched larvae 4 days after insecticide delivery, Replicate 3 [1] | Hatching rate (%), Replicate 1 [1] [%] | Hatching rate (%), Replicate 2 [1] [%] | Hatching rate (%), Replicate 3 [1] [%] | Hatching rate (%) ([2]; Replicate 1) | Hatching rate (%) ([2]; Replicate 2) | Number of hatched larvae 5 days after insecticide delivery ([2]; Replicate 1) | Number of hatched larvae 5 days after insecticide delivery ([2]; Replicate 2) | Hatching rate (%), Replicate 1 (eggs of Aleyrodidae) [%] | Hatching rate (%), Replicate 2 (eggs of Aleyrodidae) [%] | Hatching rate (%), Replicate 3 (eggs of Aleyrodidae) [%] | Number of hatched larvae 5 days after insecticide delivery, Replicate 1 (eggs of Aleyrodidae) | Number of hatched larvae 5 days after insecticide delivery, Replicate 2 (eggs of Aleyrodidae) | Number of hatched larvae 5 days after insecticide delivery, Replicate 3 (eggs of Aleyrodidae) | Hatching rate (%) (eggs of Thrips; Replicate 1) | Hatching rate (%) (eggs of Thrips; Replicate 2) | Hatching rate (%) (eggs of Thrips; Replicate 3) | Number of hatched larvae 5 days after insecticide delivery (eggs of Thrips; Replicate 1) | further results |
| --- | --- | --- | --- | --- | --- | --- | --- | --- | --- | --- | --- | --- | --- | --- | --- | --- | --- | --- | --- | --- | --- |
| CCC(COc1ccc(Cl)cc1Cl)OS(=O)OCCF (centres unmarked) [Compound 19] | 3 | 5 | 4 | 3.26 | 4.45 | 4.17 | 0.00 | 1.09 | 0 | 1 | 0.00 | 0.00 | 0.00 | 0 | 0 | 0 | 0.00 | 0.83 | 0.00 | 0 | inhibitory activity on the hatching of eggs of Harmonia axyridis (in words) [1]: strong inhibitory activities; inhibitory activity on the hatching of eggs of Tetranychus urticae (in words) [2]: strong inhibitory activities; inhibitory activity on the hatching of eggs of Aleyrodidae (in words) (eggs of Aleyrodidae): strong inhibitory activities; inhibitory activity on the hatching of eggs of Thrips (in words) (eggs of Thrips): strong inhibitory activities; Number of hatched larvae 5 days after insecticide delivery (eggs of Thrips; Replicate 2): 1; Number of hatched larvae 5 days after insecticide delivery (eggs of Thrips; Replicate 3): 0 |
| CCC(COS(=O)OCCF)Oc1ccc(Cl)cc1Cl (centres unmarked) [Compound 19′] | 4 | 5 | 7 | 4.49 | 5.21 | 6.48 | 1.14 | 1.92 | 1 | 2 | 0.00 | 0.00 | 0.00 | 0 | 0 | 0 | 0.95 | 1.15 | 0.00 | 1 | inhibitory activity on the hatching of eggs of Harmonia axyridis (in words) [1]: strong inhibitory activities; inhibitory activity on the hatching of eggs of Tetranychus urticae (in words) [2]: strong inhibitory activities; inhibitory activity on the hatching of eggs of Aleyrodidae (in words) (eggs of Aleyrodidae): strong inhibitory activities; inhibitory activity on the hatching of eggs of Thrips (in words) (eggs of Thrips): strong inhibitory activities; Number of hatched larvae 5 days after insecticide delivery (eggs of Thrips; Replicate 2): 1; Number of hatched larvae 5 days after insecticide delivery (eggs of Thrips; Replicate 3): 0 |
| CC(C)(COc1ccc(Cl)cc1Cl)OS(=O)OCCF (centres unmarked) [Compound R-10] | 15 | 10 | 13 | 12.00 | 11.90 | 12.87 | 18.06 | 16.13 | 13 | 15 | 9.79 | 9.42 | 9.92 | 14 | 13 | 12 | 15.31 | 14.50 | 14.53 | 15 | Number of hatched larvae 5 days after insecticide delivery (eggs of Thrips; Replicate 2): 19; Number of hatched larvae 5 days after insecticide delivery (eggs of Thrips; Replicate 3): 17 |
